What was measured:
[1] = Physical stability of crystalline embodiments of compound Ex. 1 (polymorph screening, HT-XRPD); assay type: physicochemical; details: for physical stability after exposure to AAC: accelerated aging conditions, 40° C./70% RH, two days
Protocol: Long term slurry experiments were performed by suspending compound embodiment 1s in twenty neat solvents and stirred at room temperature for two weeks and at 50° C. for one week. Upon completion of the equilibration time, the residual solids were separated from the mother liquors. The solids were dried under ambient conditions and dried under vacuum (5 mBar) before being analyzed by HT-XRPD. Subsequently, the solids were exposed to accelerated aging conditions (40° C./70% relative humidity) for two days and again analyzed by HT-XRPD.
Embodiment is converted to hydrated embodiment 10 when it was exposed to 100% RH at 25° C. […] This behavior is attributable to an unequally strong binding of all the hydration/solvation molecules. In this case, embodiment 10 would have a less strongly bound second water molecule that would be lost under ambient conditions. More precisely, the physical stability of embodiment is was investigated in climate chambers by exposing a 20 mg sample of such embodiment to 40° C. and 70% relative humidity for four days, and another 20 mg sample of the same embodiment was exposed also for four days to 25° C. and 100% relative humidity. After four days, the various solid samples were analyzed by HR-XRPD, the crystal cell parameters were determined and the diffractograms were indexed. From bottom to top, the first diffractogram in FIG. 6 corresponds to embodiment is as starting material, and the second corresponds to the same form after a 4-day exposure to 40° C. and 70% relative humidity, noted as “1s 70 RH” in the same figure. […] Indexing for such form was not possible due to the small amount in which it was present. The third diffractogram corresponds to embodiment is after a 4-day exposure to 25° C. and 100% relative humidity, noted as “10” in the same figure. […] Upon dehydration, both embodiments 1s and 10 re-crystallized to the anhydrous form with a melting point of 148° C.
The mother liquors of the solvent equilibration experiments performed at 50° C. were filtered at 50° C. to remove any particulate matter. […] When solids had precipitated during aging these solids were separated from the liquid, dried under ambient conditions and under vacuum, and analyzed by HT-XRPD. The remaining mother liquors were allowed to slowly evaporate and the remaining solids were analyzed by HT-XRPD. The samples in which no precipitation occurred were placed under vacuum and the dried solids were analyzed by HT-XRPD. All the solids were then exposed to AAC (2 days at 40° C./70% RH) and re-analyzed by HT-XRPD.
The cooling/evaporative crystallization experiments at L scale were performed in a 96-well plate, using 12 neat solvents and 12 solvent mixtures and applying four temperature profiles. […] Upon completion of the temperature profile the solvents were allowed to evaporate at low ambient pressure (24 hours) and the remaining solids were analyzed by HT-XRPD before and after exposure to AAC for 2 days (40° C./70% RH).
The cooling crystallization experiments with hot filtration were performed from supersaturated solutions of compound Ex. 1 prepared at 50° C. in different solvent mixtures. […] The vials in which solids had precipitated after the temperature profile were centrifuged and the solids were separated from the liquid and analyzed by HT-XRPD (after drying under vacuum). If no solids had precipitated the solutions were evaporated under vacuum and the solids analyzed by HT-XRPD. […]

MDCK-MDR1 cell line = test: MDCK-MDR1 permeability assay; assay type: in vitro ADME; details: apical-to-basolateral, with P-gp inhibitor elacridar (2 μM), 5 μM, 60 min
Protocol: Permeability measurements were conducted according to the Cyprotex protocol using the MDCK-MDR1 cell line obtained from the NIH (Rockville, Md., USA). […] The cells in this assay form a cohesive sheet of a single cell layer filing the surface area of the culture dish, also known as a confluent monolayer, and on day four the test compound was added to the apical side of the membrane and the transport of the compound across the monolayer was monitored over a time period of 60 min.
Test compounds were dissolved in DMSO at a concentration of 10 mM. The dosing solutions were prepared by diluting test compound with assay buffer (Hanks Balanced Salt Solution), pH 7.4, at a final concentration of 5 μM. For assessment of apical to basolateral (“A-B”) permeability, buffer was removed from the apical compartment and replaced with test compound dosing solution with or without the permeability glycoprotein (“PgP”, “P-gP”, “Pgp” or “P-gp”) inhibitor elacridar (2 μM). For assessment of basolateral to apical (“B-A”) permeability, buffer was removed from the companion plate and replaced with test compound dosing solution. Incubations were carried out in duplicate at 37° C. in an atmosphere of 5% CO2 with a relative humidity of 95%. Each assay included the reference markers propranolol (high permeability) and prazosin (PgP substrate). After incubation for 60 minutes, apical and basolateral samples were diluted and test compounds quantified by LC/MS/MS using an 8-point calibration in the range 0.0039 to 3 μM with appropriate dilution of the samples (receiver dilution factor=1; donor and Co dilution factor=10). The permeability coefficient (Papp) for each compound was calculated from the following equation: Papp=(dQ/dt)/(C0×S), where dQ/dt is the rate of permeation of the drug across the cells, C0 is the donor compartment concentration at time zero, and S is the area of the cell monolayer.
Papp(A-B) gives an indication of permeation extent across the cells in this assay, which is envisaged to model the transcellular transport across Pgp-expressing cells, such as Pgp-expressing gastrointestinal tract cells.

moderate to severe CD = details: 4 week/Phase 2 clinical trial; cited from earlier work

physical stability after exposure to AAC [1]	SMILES	other results
physically stable	CC(C)(O)CNC(=O)Cc1nc2cnc3[nH]ccc3c2n1[C@H]1CC[C@H](CC#N)CC1 [Embodiment 7]	
	N#CC[C@H]1CC[C@H](n2c(CC(=O)NC3CCOCC3)nc3cnc4[nH]ccc4c32)CC1 [Ex. 5, 2-(1-((1r,4r)-4-(Cyanomethyl)cyclohexyl)-1,6-dihydroimidazo[4,5-d]pyrrolo[2,3-b]pyridin-2-yl)-N-(tetrahydro-2H-pyran-4-yl)acetamide]	MDCK-MDR1 P^eapp(A-B) @ 5 (μM) (MDCK-MDR1 cell line): 0.5 10^−6 cm/sec
	CC(C)(O)CNC(=O)Cc1nc2cnc3[nH]ccc3c2n1[C@H]1CC[C@H](CC#N)CC1 [Embodiment 10]	physical stability under ambient conditions ([1]; ambient conditions): limited physical stability
physically unstable	CC(C)(O)CNC(=O)Cc1nc2cnc3[nH]ccc3c2n1[C@H]1CC[C@H](CC#N)CC1 [Embodiment 5]	
stable solid form	CC(C)(O)CNC(=O)Cc1nc2cnc3[nH]ccc3c2n1[C@H]1CC[C@H](CC#N)CC1 [Embodiment 6]	
converted to embodiment 3e	CC(C)(O)CNC(=O)Cc1nc2cnc3[nH]ccc3c2n1[C@H]1CC[C@H](CC#N)CC1 [Embodiment 2]	
	C[C@@H]1CCN(C(=O)CC#N)C[C@@H]1N(C)c1ncnc2[nH]ccc12 [tofacitinib]	clinical efficacy in Crohn's disease (moderate to severe CD): failure to achieve clinical efficacy

From patent publication US11059823B2, “Small molecule inhibitors of the JAK family of kinases” (Janssen Pharmaceutica NV, priority 2016, dated 2021)
